The results in this text go back to patent publication US7517902B2, “Substituted indazoles, compositions containing the same, and the preparation and use thereof” (Aventis Pharma S.A., priority 2004, dated 2009).

In general, melting point refers to the temperature, or range, at which the solid turns liquid.

One series addresses T1, human KDR enzyme (Homo sapiens, UniProt P35968).
T1 construct: The cytoplasmic domain of the human KDR enzyme was cloned in the form of a GST fusion; GST; made in house; host or cells: SF21 insect cells (baculovirus, pFastBac)
Put plainly: KDR substrate phosphorylation assay (scintillation, 96-well plate). In kind it is biochemical. Here is the method:
The inhibitory effect of the compounds is determined in an assay of substrate phosphorylation by the KDR enzyme in vitro using a scintillation technique (96-well plate, NEN).
The cytoplasmic domain of the human KDR enzyme was cloned in the form of a GST fusion into the baculovirus expression vector pFastBac. The protein was expressed in SF21 cells and purified to approximately 60% homogeneity.
The KDR kinase activity is measured in 20 mM MOPS, 10 mM MgCl2, 10 mM MnCl2, 1 mM DTT, 2.5 mM EGTA, 10 mM β-glycerophosphate, pH=7.2, in the presence of 10 mM MgCl2, 100 μM Na3VO4, 1 mM NaF. 10 μl of the compound are added to 70 μl of kinase buffer, containing 100 ng of KDR enzyme at 4° C. The reaction is triggered by adding 20 μl of solution containing 2 μg of substrate (SH2-SH3 fragment of PLCγ expressed in the form of a GST fusion protein), 2 μCi γ^33P[ATP] and 2 μM cold ATP. After 1 hour of incubation at 37° C., the reaction is stopped by adding 1 volume (100 μl) of 200 mM EDTA. The incubation buffer is withdrawn and the wells are washed three times with 300 μl of PBS. The radioactivity is measured in each well using a Top Count NXT radioactivity counter (Packard).
The background noise is determined by measuring the radioactivity in four different wells containing the radioactive ATP and the substrate alone.
A control for total activity is measured in four different wells containing all of the reagents (γ^33P-[ATP], KDR and PLCγ substrate), but in the absence of compound.
The inhibition of KDR activity with the compound of the invention is expressed in percentage inhibition of the control activity determined in the absence of compound.
The compound SU5614 (Calbiochem) (1 μM) is included in each plate as an inhibition control.

A further series addresses T2, human Tie2 (Homo sapiens, UniProt Q02763).
T2 construct: amino acids of the intracellular domain 776-1124; made in house
The series can be described thus: Tie2 assay of PLC phosphorylation (FlashPlate). The class given is biochemical. As to conditions: read-out: IC 50 TIE2. Here is the method:
The coding sequence of human Tie2, corresponding to the amino acids of the intracellular domain 776-1124, was generated by PCR, using the cDNA isolated from human placenta as a model. This sequence was introduced into a baculovirus expression vector pFastBacGT in the form of a GST fusion protein.
The inhibitory effect of the molecules is determined in an assay of PLC phosphorylation by Tie2 in the presence of GST-Tie2 purified to approximately 80% homogeneity. The substrate is composed of the SH2-SH3 fragments of PLC expressed in the form of a GST fusion protein.
The kinase activity of Tie2 is measured in a 20 mM MOPS buffer, pH 7.2, containing 10 mM MgCl2, 10 mM MnCl2, 1 mM DTT, 10 mM of glycerol-phosphate. In a 96-well FlashPlate plate, kept on ice, a reaction mixture is deposited which is composed of 70 μl of kinase buffer containing 100 ng of GST-Tie2 enzyme per well. Subsequently 10 μl of the test molecule diluted to a concentration of 10% maximum in DMvSO are added. For a given concentration, each measurement is carried out in quadruplicate. The reaction is initiated by adding 20 μl of solution containing 2 μg of GST-PLC, 2 μM of cold ATP and 1 μCi of ^33P[ATP]. After 1 hour of incubation at 37° C., the reaction is terminated by adding 1 volume (100 μl) of 200 mM EDTA. Following removal of the incubation buffer, the wells are washed three times with 300 μl of PBS. The radioactivity is measured on a Wallac MicroBeta 1450.
The inhibition of Tie2 activity is calculated and expressed as a percentage inhibition relative to the control activity determined in the absence of compound.

In a further series the target is T3, Aurora2 (Homo sapiens, UniProt O14965).
T3 construct: Aurora 2: whole recombinant protein comprising an N-terminal histidine tail; His tag (histidine tail) (N); made in house; host or cells: E. coli
T3 sequence (O14965 1-403): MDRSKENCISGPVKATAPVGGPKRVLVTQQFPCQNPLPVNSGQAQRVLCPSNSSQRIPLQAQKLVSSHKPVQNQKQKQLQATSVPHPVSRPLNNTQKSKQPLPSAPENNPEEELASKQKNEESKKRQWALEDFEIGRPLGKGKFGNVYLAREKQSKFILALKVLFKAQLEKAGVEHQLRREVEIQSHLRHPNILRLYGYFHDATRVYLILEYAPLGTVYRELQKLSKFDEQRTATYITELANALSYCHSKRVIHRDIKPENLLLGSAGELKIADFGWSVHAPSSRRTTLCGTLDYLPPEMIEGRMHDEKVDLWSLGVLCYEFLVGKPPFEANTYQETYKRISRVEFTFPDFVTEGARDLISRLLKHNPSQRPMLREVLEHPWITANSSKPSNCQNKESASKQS
Put plainly: Aurora2 enzyme assay, NuMA substrate phosphorylation (Flashplate). In kind it is biochemical. As to conditions: read-out: IC 50 Aurora2. Here is the method: The inhibitory effect of compounds with respect to the kinases Aurora1 and Aurora2 is determined by an enzyme assay employing radioactivity detection.
The kinase activity of Aurora 1 and Aurora 2 is evaluated by the phosphorylation of the substrate Numa-histidine in the presence of radiolabeled ATP ([^33P]ATP), using 96-well Flashplate plates in which nickel chelate is fixed to the surface of the microplate. The amount of ^33P phosphate incorporated in the NuMA substrate is proportional to the activity of the enzyme Aurora1 or Aurora2.
The proteins are produced in the protein production laboratory of the SanofiAventis group.
Aurora 2: whole recombinant protein comprising an N-terminal histidine tail, expressed in E. coli and purified to more than 82%.
NuMA (nuclear protein that associates with the mitotic apparatus) fragment of 424 amino acids, expressed in E. coli, whose N-terminal end has been labeled with histidine and used as a substrate for the two Aurora enzymes.
The microplates used are 96-well Flash-Plate plates with nickel chelate (Perkin Elmer, model SMP107).
The products for evaluation are incubated in a reaction volume of 100 μL per well in the presence of 10 nM of Aurora 1 or Aurora 2, 500 nM of NuMA substrate in a buffer composed of 50 mM of Tris/HCl (pH 7.5), 50 mM NaCl, 5 mM MgCl2 (Aurora-B) or 10 mM MgCl2 (Aurora-A) and 1 mM of DTT, at 37° C.
In each well, 80 μL of the enzyme/substrate incubation buffer are distributed, followed by 10 μL of the product to be evaluated, in variable concentrations. The reaction is initiated by adding 1 μM of final ATP containing 0.2 μCi of [^33P]ATP (10 μL). After 30 minutes of incubation, the reaction is terminated by simply removing the reaction buffer and each well is washed twice with 300 μl of the Tris/HCl buffer. The radioactivity is then measured in each well by means of a scintillation apparatus, Packard, Top count model.
The control enzyme activity of Aurora is expressed by the number of counts per minute obtained within 30 minutes, after deduction of the background noise (reaction mixture not containing the enzyme). The evaluation of the various test products is expressed in percentage inhibition of the Aurora activity relative to the control.

T2 sequence (Q02763 776-1124): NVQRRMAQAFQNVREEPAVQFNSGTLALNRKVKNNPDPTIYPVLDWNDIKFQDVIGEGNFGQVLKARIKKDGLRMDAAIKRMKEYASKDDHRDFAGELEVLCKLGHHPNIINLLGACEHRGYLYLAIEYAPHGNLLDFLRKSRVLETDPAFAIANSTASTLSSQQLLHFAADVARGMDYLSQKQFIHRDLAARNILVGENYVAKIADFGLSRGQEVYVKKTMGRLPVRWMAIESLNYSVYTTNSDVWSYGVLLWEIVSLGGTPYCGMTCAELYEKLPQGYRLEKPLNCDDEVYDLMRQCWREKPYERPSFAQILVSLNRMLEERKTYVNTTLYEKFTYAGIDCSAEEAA
T1 sequence (P35968 786-1356 limits assumed): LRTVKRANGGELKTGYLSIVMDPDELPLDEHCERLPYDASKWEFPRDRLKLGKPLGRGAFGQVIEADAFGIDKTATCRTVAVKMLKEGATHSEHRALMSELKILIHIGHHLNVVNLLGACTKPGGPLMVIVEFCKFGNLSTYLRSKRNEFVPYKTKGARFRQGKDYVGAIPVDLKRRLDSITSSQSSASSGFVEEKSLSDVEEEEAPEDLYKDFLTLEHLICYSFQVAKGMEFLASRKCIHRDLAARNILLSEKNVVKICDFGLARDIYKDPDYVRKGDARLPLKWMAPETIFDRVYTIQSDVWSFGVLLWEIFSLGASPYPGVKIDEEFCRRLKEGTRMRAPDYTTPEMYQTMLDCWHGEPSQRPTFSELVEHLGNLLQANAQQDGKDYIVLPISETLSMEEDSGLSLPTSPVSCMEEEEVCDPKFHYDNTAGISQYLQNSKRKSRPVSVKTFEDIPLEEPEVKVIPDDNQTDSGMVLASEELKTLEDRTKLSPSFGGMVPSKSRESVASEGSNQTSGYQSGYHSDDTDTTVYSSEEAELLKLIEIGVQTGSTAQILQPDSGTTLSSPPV

On to `O=C(Nc1ccc(-c2ccc3c(NC(=O)c4ccco4)n[nH]c3c2F)cc1)Nc1cc(C(F)(F)F)ccc1F` [Example 17, 1-(4-{7-Fluoro-3-[(furan-2-yl)carbonylamino]-1H-indazol-6-yl}phenyl)-3-(2-fluoro-5-trifluoromethylphenyl)urea], for which the melting point lay within 152 to 153 °C. This molecule also showed an IC50 against human KDR enzyme of 29 nM. For the same molecule, the IC50 on human Tie2 was found to be 8 nM. Further, the IC50 on Aurora2 came to 60 nM.

With `O=C(Nc1ccc(-c2ccc3c(NC(=O)c4ccccc4)n[nH]c3c2F)cc1)Nc1cc(C(F)(F)F)ccc1F` [Example 18, 1-(4-{7-Fluoro-3-[phenylcarbonylamino]-1H-indazol-6-yl}phenyl)-3-(2-fluoro-5-trifluoromethylphenyl)urea], the melting point was in the range of 206 to 207 °C. For the same molecule, at human KDR enzyme, the IC50 turned out to be 77 nM. In addition, the IC50 on human Tie2 worked out at 26 nM. Further, the IC50 on Aurora2 worked out at 346 nM.
